Experimental data as given in patent publication US20250352555A1, “METHOD OF INCREASING IMMUNE CELL ACTIVATION AND/OR TREATING CANCER USING DIBENZOXAZEPINONES” (VASCULAR THERAPEUTICS PTY LTD, priority 2022, published 2025).
Where two headings read alike, the source gives them in different places.

Assays:
[1] = system: resistant melanoma PDX; settings: resistant melanoma PDX model; cited from earlier work
[2] = system: PD-1; test: Flow cytometry with anti-PD-1 antibodies, Jurkat T cells; format: cell-based, human; settings: same concentration range as BT2, 48 h (FIG. 17B)
Method: Flow cytometry with anti-PD-1 antibodies. Jurkat T cells were grown in 6 well plates containing RPMI 1640 and 10% FBS. After 24 h, the cells were treated with various concentrations of BT2 or BT3 for 48 h. Alternatively, the cells were incubated with 3 μM BT2 for various times. After treatment, the cells were washed with PBS, and centrifuged at 300×g for 5 min, and resuspended at 5×10^6 cells/ml. The cells were then incubated with BV421 conjugated mouse anti-human CD279 (PD-1) (BD, cat. no. 562516) or BV421 conjugated mouse IgG1 (BD, cat. no. 562438) for 45 min at 22° C. Cells were then washed twice with 1 ml of Stain Buffer, centrifuged and pellets were resuspended in 0.5 ml Stain Buffer. Stained cell suspensions were analyzed by flow cytometry using a BD FACSCanto (II).
Jurkat T cells express PD-1 (Yi et al., 2023) and are widely used as model human T cells (e.g., Repas et al., 2022). […] BT2's effects were not only dose-dependent but time-dependent. BT2 (3 μM) inhibited PD-1 levels by 50% after 24 h and by 80% after 48 h (FIG. 17C).

[3] = system: PD-1; test: Western blotting for PD-1, Jurkat T cells; format: cell-based, human; settings: 24 h; for PD-1 expression (Western blot): various concentrations
Method: (§1) Western blotting. Cells were treated with compounds and times indicated and total cell lysates were prepared in RIPA buffer. Lysates (10 μg) were resolved by SDS-PAGE and transferred to Immobilon-P polyvinylidene difluoride (PVDF) membranes (Millipore, USA).
(§2) Membranes were blocked with 5% skim milk and incubated with rabbit monoclonal anti-c-Jun (Abcam, cat. no. ab32137; mouse, rat and human reactive) antibody, rabbit monoclonal anti-PD-1 (Abcam, cat. no. ab214421) antibody, mouse monoclonal β-actin antibody (Sigma-Aldrich, cat. no. A5316), anti-phospho-SAPK/JNK (Thr^183/Tyr^185) (98F2) (CST, cat. no. 4671) antibody, anti-phospho-p44/42 MAPK (ERK1/2) (Thr^202/Tyr^204) (D13.14.4E) (CST, cat. no. 4370) antibody, anti-phospho-p38 MAPK (Thr^180/Tyr^182) (D3F9) (CST, cat. no. 4511) antibody, anti-SAPK/JNK antibody (CST, cat. no. 9252), anti-p44/42 MAPK (ERK1/2) (137F5) antibody (CST, cat. no. 4695), anti-p38 MAPK antibody (CST, cat. no. 9212), anti-DUSP8 antibody (Abcam, cat. no. ab198175) or anti-c-MAF (BLR045F) antibody (Abcam, cat. no. ab243901). This was followed by incubation with horseradish peroxidase-conjugated secondary goat anti-rabbit (DAKO, cat. no. P0448) or goat anti-mouse (DAKO, cat. no. P0447) antibody. Chemiluminescence was detected using the Western Lightning Chemiluminescence system (Thermo Scientific, USA) and ImageQuant™ LAS 4000 biomolecular imager (GE Healthcare Life Sciences, USA). Band intensity in images generated with the LAS 4000 was quantified using NIH Image J.

[4] = system: non-small cell lung carcinoma; settings: non-small cell lung carcinoma-bearing mice; cited from earlier work
[5] = system: p-ERK (Thr^202/Tyr^204); test: Western blotting for p-ERK, A375 melanoma cells; format: cell-based, human; settings: 10 or 100 nM, 24 h
Method: as §1
as §2, with “4695), anti-p38 MAPK antibody (CST, cat. no. 9212), anti-DUSP8 antibody (Abcam, cat. no. ab198175) or anti-c-MAF (BLR045F) antibody (Abcam, cat. no. ab243901). This was followed by incubation with horseradish peroxidase-conjugated secondary goat anti-rabbit (DAKO, cat. no. P0448) or goat anti-mouse (DAKO, cat. no. P0447) antibody.” left out
(§3) The effect of BT2 on ERK phosphorylation (p-ERK) was evaluated in human melanoma cells given that MAP kinase activation is key to melanoma progression and the paucity of clinically approved ERK inhibitors. […]

[6] = system: p-ERK (Thr^202/Tyr^204); test: Western blotting for p-ERK, MeWo melanoma cells; format: cell-based, human; settings: 10 or 100 nM, 24 h
Method: as §1
as §2, with “4695), anti-p38 MAPK antibody (CST, cat. no. 9212), anti-DUSP8 antibody (Abcam, cat. no. ab198175) or anti-c-MAF (BLR045F) antibody (Abcam, cat. no. ab243901). This was followed by incubation with horseradish peroxidase-conjugated secondary goat anti-rabbit (DAKO, cat. no. P0448) or goat anti-mouse (DAKO, cat. no. P0447) antibody.” left out
as §3

[7] = system: A375 cells; test: Apoptosis, flow cytometry with Annexin V-FITC, A375; format: cell-based, human; settings: 1 μM, 24 h
Method: (§4) Flow cytometry with Annexin V-FITC. Cells were seeded into 6 well plates in normal culture medium containing 10% FBS. After culturing overnight, the cells were incubated in complete medium containing vehicle, BT2 or SCH772984 at 1 μM and left for 24 h. The culture medium was removed and the cells were washed with PBS. Accutase (Stem Cell Technologies, cat. no. 07920) was used to detach the cells. The cells were then washed and centrifuged at 300 g for 5 min and resuspended at 1×10^6 cells/ml in 500 μl of 1× binding buffer (Annexin V-FITC Apoptosis Staining/Detection Kit, Abcam, cat. no. ab14085). The cells were transferred to 12×75 mm tubes and annexin V-FITC/propidium iodide (PI) was added and incubated for 5 min at 22° C. protected from light. Stained cell suspensions were analyzed by flow cytometry using a BD LSRFortessa X20.
(§5) The morphology of A375 and MeWo cells exposed to 1 μM of BT2 or SCH772984 for 24 h was also assessed.

[8] = system: MeWo cells; test: Apoptosis, flow cytometry with Annexin V-FITC, MeWo; format: cell-based, human; settings: 1 μM, 24 h
Method: as §4, §5

[9] = system: advanced melanoma; settings: cited from earlier work; for 5 year overall survival: advanced melanoma

Cc1cnc(NC2CCOCC2)nc1-n1cnc(C(=O)N[C@H](CN)c2cc(F)cc(Cl)c2)c1 [ASN007]
efficacy [1]: demonstrates efficacy

CCN1C(=O)c2cc(N)ccc2Oc2ccccc21 [BT3, 2-amino-10-ethyldibenzo[b,f][1,4]oxazepin-11(10H)-one]
effect on PD-1 expression [2]: no inhibitory effect

COc1cccc(-c2cc(=O)c3ccccc3o2)c1N [PD98059]
PD-1 expression (Western blot) [3]: no effect on PD-1 expression

O=C(NOC[C@H](O)CO)c1ccc(F)c(F)c1Nc1ccc(I)cc1F [PD0325901]
effect on efficacy of anti-PD-1 antibodies [4]: can enhance the efficacy of anti-PD-1 antibodies

O=C(Nc1ccc2[nH]nc(-c3ccncc3)c2c1)[C@@H]1CCN(CC(=O)N2CCN(c3ccc(-c4ncccn4)cc3)CC2)C1 [SCH772984, reference compound]
ERK phosphorylation (p-ERK, Western blot) [5]: suppressed ERK phosphorylation
ERK phosphorylation (p-ERK, Western blot) [6]: suppressed ERK phosphorylation
potency in suppressing PD-1 expression, fold less potent than BT2 ([3]; Western blot): > 10 fold
PD-1 expression (Western blot) [3]: suppressed PD-1 expression
apoptosis (Annexin V-FITC+ PI−) [7]: no or less potent pro-apoptotic effects
apoptosis (Annexin V-FITC+ PI−) [8]: no or less potent pro-apoptotic effects

pembrolizumab: anti-PD-1 antibody
patients with treatment-related adverse events ([9]; advanced melanoma patients): 86%
5 year overall survival ([9]; all patients): 34%
5 year overall survival ([9]; treatment-naive patients): 41%
